The test system of assay [1] is panel of 290 distinct kinases (321 in the larger panel), excluding mutant variants. Conditions: kinase selectivity score, class symbols.
Assay [2] concerns the target mutant BRAF kinase (Homo sapiens (Human), UniProt P15056, V600E). As to conditions: read-out: BRAF V600E Kd, class symbols.
For assay [3], the target named is wild type BRAF kinase (Homo sapiens (Human), UniProt P15056). Conditions: read-out: BRAF WT Kd, class symbols.
In assay [4] the target is RAF kinases (Homo sapiens (Human), UniProt P04049). As to conditions: read-out: RAF1 Kd, class symbols.
Chain of RAF kinases (P04049 whole entry): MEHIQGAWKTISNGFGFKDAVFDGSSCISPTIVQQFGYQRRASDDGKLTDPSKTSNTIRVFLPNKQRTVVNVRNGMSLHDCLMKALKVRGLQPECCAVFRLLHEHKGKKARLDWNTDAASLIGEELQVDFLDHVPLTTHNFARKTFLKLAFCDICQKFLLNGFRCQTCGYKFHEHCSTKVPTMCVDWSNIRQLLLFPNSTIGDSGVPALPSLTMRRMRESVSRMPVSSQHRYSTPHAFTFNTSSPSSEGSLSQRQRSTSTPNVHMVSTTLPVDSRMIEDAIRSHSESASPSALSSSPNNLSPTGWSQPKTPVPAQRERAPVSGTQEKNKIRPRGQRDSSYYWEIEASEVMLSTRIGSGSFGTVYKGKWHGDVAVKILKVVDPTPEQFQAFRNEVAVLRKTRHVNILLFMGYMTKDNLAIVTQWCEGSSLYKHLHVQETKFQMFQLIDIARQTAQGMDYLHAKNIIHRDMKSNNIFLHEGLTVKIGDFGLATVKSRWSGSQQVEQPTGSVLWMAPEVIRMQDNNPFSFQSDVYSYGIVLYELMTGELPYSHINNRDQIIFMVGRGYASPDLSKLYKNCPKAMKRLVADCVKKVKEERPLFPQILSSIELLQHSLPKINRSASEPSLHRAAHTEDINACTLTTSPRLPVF
Experimental: The liganded beads were blocked with excess biotin and washed with blocking buffer (SeaBlock (Pierce), 1% BSA, 0.05% Tween 20, 1 mM DTT) to remove unbound ligand and to reduce non-specific binding. […] Test compounds were prepared as 100× stocks in DMSO and rapidly diluted into the aqueous environment. DMSO was added to control assays lacking a test compound. Primary screen interactions were performed in polypropylene 384-well plates in a final volume of 34 μL, while Kd determinations were performed in polystyrene 96-well plates in a final volume of 135 μL. […] The kinase concentration in the eluates was measured by quantitative PCR. Each kinase was tested individually against each compound. KdS were determined using eleven serial threefold dilutions. A selectivity score, which is a quantitative measure of selectivity of a compound against a panel of enzymes, may be calculated for a compound by dividing the number of enzymes for which a compound meets a set criteria, (for example, a binding constant of 100 nM or less), by the total number of enzymes tested. […] (Note, for those compounds tested in a larger kinase panel, as indicated by an asterisk (*) next to the S35 score, the divisor is 321 (i.e. the larger panel contains 321 distinct kinases, excluding mutant variants.)).
[5] abbreviates: value marked * (larger kinase panel).

Results on 26 compounds are retold here after US9730937B2, “RAF kinase modulator compounds and methods of use thereof” (AMBIT BIOSCIENCES CORPORATION, priority 2008, dated 2017).

Where a name gives a salt, the structure may show the parent alone. Read-outs that look alike come from different tables or passages of the source.

Chain of wild type BRAF kinase (P15056 whole entry): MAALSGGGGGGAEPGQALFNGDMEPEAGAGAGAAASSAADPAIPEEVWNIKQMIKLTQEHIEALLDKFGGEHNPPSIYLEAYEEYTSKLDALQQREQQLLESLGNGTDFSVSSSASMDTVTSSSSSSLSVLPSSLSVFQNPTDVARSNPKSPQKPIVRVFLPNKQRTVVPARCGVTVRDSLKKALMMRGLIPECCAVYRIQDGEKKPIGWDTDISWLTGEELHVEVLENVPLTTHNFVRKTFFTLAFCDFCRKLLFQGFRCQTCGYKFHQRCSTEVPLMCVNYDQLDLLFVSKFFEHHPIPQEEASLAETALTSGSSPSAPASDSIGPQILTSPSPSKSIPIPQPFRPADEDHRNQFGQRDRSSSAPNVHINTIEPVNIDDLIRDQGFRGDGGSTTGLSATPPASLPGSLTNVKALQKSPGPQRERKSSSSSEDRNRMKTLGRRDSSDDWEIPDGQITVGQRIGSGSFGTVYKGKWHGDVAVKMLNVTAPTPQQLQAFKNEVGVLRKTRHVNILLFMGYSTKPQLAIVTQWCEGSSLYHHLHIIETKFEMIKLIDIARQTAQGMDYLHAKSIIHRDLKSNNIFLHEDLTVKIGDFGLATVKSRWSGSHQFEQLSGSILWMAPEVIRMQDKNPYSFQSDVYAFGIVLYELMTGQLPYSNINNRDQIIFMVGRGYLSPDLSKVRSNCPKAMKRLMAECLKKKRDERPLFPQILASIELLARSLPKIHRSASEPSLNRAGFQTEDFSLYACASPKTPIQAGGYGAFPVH
Chain of mutant BRAF kinase (P15056 whole entry V600E): as the sequence (P15056 whole entry) above, with V600E counted along it

Take `COc1cc2ncnc(Oc3cccc(NC(=O)Nc4cc(C(C)(C)C)on4)c3)c2cc1OC` [Ex 1, 1-(5-tert-butylisoxazol-3-yl)-3-(3-(6,7-dimethoxyquinazolin-4-yloxy)phenyl)urea]: in assay [1] (290 distinct kinases), the S35 result is reported as “C (0.20 < C ≦ 0.40)”. In addition, the Kd was under 250 nM in assay [2] and over 1000 nM in assay [3].
Taken in the same sequence, the figures for `CCOc1cc2ncnc(Oc3cccc(NC(=O)Nc4cc(C(C)(C)C)on4)c3)c2cc1OC` [Ex 6, 1-(5-tert-butylisoxazol-3-yl)-3-[3-(7-ethoxy-6-methoxyquinazolin-4-yloxy)phenyl]urea hydrochloride] were “D (D > 0.40)”, under 250 nM and over 1000 nM.
Taken in the same sequence, the figures for `COc1cc2ncnc(Oc3cc(NC(=O)Nc4cc(C(C)(C)C)on4)ccc3F)c2cc1OC` [Ex 9, 1-(5-tert-butylisoxazol-3-yl)-3-(3-(6,7-dimethoxyquinazolin-4-yloxy)-4-fluorophenyl)urea] were “D (D > 0.40)”, under 250 nM and over 1000 nM.
As to `COc1cc2ncnc(Oc3cc(NC(=O)Nc4cc(C(C)(C)C)on4)ccc3Cl)c2cc1OC` [Ex 10, 1-(5-tert-butylisoxazol-3-yl)-3-(4-chloro-3-(6,7-dimethoxyquinazolin-4-yloxy)phenyl)urea], the Kd in assay [4] and in assay [3] was over 1000 nM throughout. In addition, the S35 entry in assay [1] (290 distinct kinases) is on record as “C (0.20 < C ≦ 0.40)”.
Consider `CCOc1cc2c(Oc3cccc(NC(=O)Nc4cc(C(C)(C)C)on4)c3)ncnc2cc1OC` [Ex 11, 1-(5-tert-butylisoxazol-3-yl)-3-(3-(6-ethoxy-7-methoxyquinazolin-4-yloxy)phenyl)urea], for which the S35 entry in assay [1] (290 distinct kinases) is “C (0.20 < C ≦ 0.40)”. Also, the figures for the Kd in assay [2] and in assay [3] were under 250 nM and over 1000 nM, respectively.
Turning to `CCOc1cc2ncnc(Oc3cccc(NC(=O)Nc4cc(C(C)(C)C)on4)c3)c2cc1OCC` [Ex 13, 1-(5-tert-butylisoxazol-3-yl)-3-[3-(6,7-diethoxyquinazolin-4-yloxy)phenyl]urea hydrochloride], the Kd in assay [4] and in assay [3] was over 1000 nM each time. The S35 result in assay [1] (290 distinct kinases) is given as “C (0.20 < C ≦ 0.40)”.
`COc1cc2c(Oc3cccc(NC(=O)Nc4cc(C(C)(C)C)on4)c3)ncnc2cc1OCCCN1CCN(CCO)CC1` [Ex 30, 1-(5-tert-butylisoxazol-3-yl)-3-(3-(7-(3-(4-(2-hydroxyethyl)piperazin-1-yl)propoxy)-6-methoxyquinazolin-4-yloxy)phenyl)urea]: the S35 result in assay [1] (290 distinct kinases) was “D (D > 0.40)”. For the same compound, the equilibrium dissociation constant (Kd) in assay [2] and in assay [3] was under 250 nM each time.
`COCCOc1ccc2ncnc(Oc3cccc(NC(=O)Nc4cc(C(C)(C)C)on4)c3)c2c1` [Ex 40, 1-(5-tert-butylisoxazol-3-yl)-3-(3-(6-(2-methoxyethoxy)quinazolin-4-yloxy)phenyl)urea]: the S35 result in assay [1] (290 distinct kinases) was “C (0.20 < C ≦ 0.40)”. For the same compound, the figures for the Kd in assay [2] and in assay [3] were under 250 nM and over 1000 nM, respectively.
Regarding `CC(C)(C)c1cc(NC(=O)Nc2cccc(Sc3ncnc4cc(F)c(F)cc34)c2)no1` [Ex 47, 1-(5-tert-butylisoxazol-3-yl)-3-(3-(6,7-difluoroquinazolin-4-ylthio)phenyl)urea], the Kd in assay [4] and in assay [3] was over 1000 nM in each case. In addition, in assay [1] (290 distinct kinases), the S35 entry is “A (A ≦ 0.10)”.
Turning to `COc1ccc2c(Sc3cccc(NC(=O)Nc4cc(C(C)(C)C)on4)c3)ncnc2c1` [Ex 48, 1-(5-tert-butylisoxazol-3-yl)-3-(3-(7-methoxyquinazolin-4-ylthio)phenyl)urea], the Kd in assay [4] and in assay [3] was over 1000 nM in each case. In addition, the S35 entry in assay [1] (290 distinct kinases) is on record as “C (0.20 < C ≦ 0.40)”.
`CCOc1cc2ncnc(Sc3cccc(NC(=O)Nc4cc(C(C)(C)C)on4)c3)c2cc1OCC` [Ex 51, 1-(5-tert-butylisoxazol-3-yl)-3-[3-(6,7-diethoxyquinazolin-4-ylthio)phenyl]urea]: the Kd in assay [4] and in assay [3] was over 1000 nM throughout. The S35 result in assay [1] (290 distinct kinases) is listed as “C (0.20 < C ≦ 0.40)”.
For the compound `CC(C)(C)c1cc(NC(=O)Nc2cccc(Sc3ncnc4cc5c(cc34)OCCO5)c2)no1` [Ex 54, 1-(5-tert-butylisoxazol-3-yl)-3-[3-(7,8-dihydro-[1,4]dioxino[2,3-g]quinazolin-4-ylthio)phenyl]urea hydrochloride], the Kd in assay [4] and in assay [3] was over 1000 nM in each case. The S35 result in assay [1] (290 distinct kinases) is listed as “C (0.20 < C ≦ 0.40)”.
Regarding `COc1cc2ncnc(Sc3cccc(NC(=O)Nc4cc(C(C)(C)C)on4)c3)c2cc1OCCN1CCCCC1` [Ex 65, 1-(5-tert-butylisoxazol-3-yl)-3-(3-(7-methoxy-6-(2-(piperidin-1-yl)ethoxy)quinazolin-4-ylthio)phenyl)urea], the S35 entry in assay [1] (290 distinct kinases) was “C (0.20 < C ≦ 0.40)”. The values for the Kd in assay [2] and in assay [3] were under 250 nM and over 1000 nM, respectively.
With `COc1cc2c(Oc3cccc(NC(=O)Nc4cc(C(C)(C)C)on4)c3)ncnc2cc1O[C@H]1CCN(CC(F)F)C1` [Ex 103, (S)-1-(5-tert-butylisoxazol-3-yl)-3-(3-{7-[1-(2,2-difluoroethyl)pyrrolidin-3-yloxy]-6-methoxyquinazolin-4-yloxy}phenyl)urea], the Kd in assay [4] and in assay [3] was over 1000 nM each time. The S35 entry in assay [1] (setting [5]) was “C* (0.20 < C ≦ 0.40)”.
For `COc1cc2ncnc(Oc3cccc(NC(=O)Nc4cc(C(C)(C)C)on4)c3)c2cc1O[C@H]1CCN(C(=O)OC(C)(C)C)C1` [Ex 108, (S)-tert-butyl 3-(4-(3-(3-(5-tert-butylisoxazole-3-yl)ureido)phenoxy)-7-methoxyquinazolin-6-yloxy)pyrrolidine-1-carboxylate], the Kd in assay [4] and in assay [3] was over 1000 nM throughout. Besides, the S35 entry in assay [1] (290 distinct kinases) is on record as “C (0.20 < C ≦ 0.40)”.
Turning to `COCC(C)(C)c1cc(NC(=O)Nc2cccc(Oc3ncnc4cc(OC)c(OC)cc34)c2)no1` [Ex 130, 1-(3-(6,7-dimethoxyquinazolin-4-yloxy)phenyl)-3-(5-(1-methoxy-2-methylpropan-2-yl)isoxazol-3-yl)urea], the Kd in assay [4] and in assay [3] was over 1000 nM in each case. Also, the S35 result in assay [1] (290 distinct kinases) is recorded as “C (0.20 < C ≦ 0.40)”.
In the case of `COc1cc2ncnc(Oc3cccc(NC(=O)Nc4cc(C(F)(F)F)ccc4Cl)c3)c2cc1OC` [Ex 142, 1-(2-chloro-5-(trifluoromethyl)phenyl)-3-(3-(6,7-dimethoxyquinazolin-4-yloxy)phenyl)urea], the S35 entry in assay [1] (290 distinct kinases) is recorded as “B (0.10 < B ≦ 0.20)”. Further, the Kd in assay [3] is over 1000 nM.
As for `COc1cc2ncnc(Oc3cccc(NC(=O)Nc4nccc(C(F)(F)F)n4)c3)c2cc1OC` [Ex 143, 1-(3-(6,7-dimethoxyquinazolin-4-yloxy)phenyl)-3-(4-(trifluoromethyl)pyrimidin-2-yl)urea], the S35 entry in assay [1] (290 distinct kinases) is “A (A ≦ 0.10)”. The Kd in assay [3] was over 1000 nM.
Consider `COCCOc1cc(NC(=O)Nc2cccc(Oc3ncnc4cc(OC)c(OC)cc34)c2)ccc1C(F)(F)F` [Ex 147, 1-(3-(6,7-dimethoxyquinazolin-4-yloxy)phenyl)-3-(3-(2-methoxyethoxy)-4-(trifluoromethyl)phenyl)urea], for which the S35 entry in assay [1] (setting [5]) was “B* (0.10 < B ≦ 0.20)”. For the same compound, the Kd in assay [3] is over 1000 nM.
On to `COCCOc1cc(NC(=O)Nc2cccc(Sc3ncnc4cc(OC)c(OC)cc34)c2)ccc1C(F)(F)F` [Ex 148, 1-(3-(6,7-dimethoxyquinazolin-4-ylthio)phenyl)-3-(3-(2-methoxyethoxy)-4-(trifluoromethyl)phenyl)urea], for which the Kd in assay [4] and in assay [3] was over 1000 nM each time. The S35 entry in assay [1] (setting [5]) is listed as “B* (0.10 < B ≦ 0.20)”.
Regarding `COc1cc2ncnc(Oc3cccc(NC(=O)Nc4cc(CN5CCOCC5)cc(C(F)(F)F)c4)c3)c2cc1OC` [Ex 151, 1-(3-(6,7-dimethoxyquinazolin-4-yloxy)phenyl)-3-(3-(morpholinomethyl)-5-(trifluoromethyl)phenyl)urea], the S35 entry in assay [1] (setting [5]) is recorded as “C* (0.20 < C ≦ 0.40)”. The Kd in assay [2] was under 250 nM; in assay [3], over 1000 nM.
Regarding `COc1cc2ncnc(Oc3cccc(NC(=O)Nc4cc(C(C)(C)C)nn4C)c3)c2cc1OC` [Ex 158, 1-(3-tert-butyl-1-methyl-1H-pyrazol-5-yl)-3-(3-(6,7-dimethoxyquinazolin-4-yloxy)phenyl)urea], in assay [1] (setting [5]), the S35 result is recorded as “C* (0.20 < C ≦ 0.40)”. The Kd in assay [2] was under 250 nM; in assay [3], over 1000 nM.
Turning to `COc1cc2ncnc(Oc3cccc(NC(=O)Nc4cc(C5CCCC5)no4)c3)c2cc1OC` [Ex 163, 1-(3-cyclopentylisoxazol-5-yl)-3-(3-(6,7-dimethoxyquinazolin-4-yloxy)phenyl)urea], the S35 entry in assay [1] (setting [5]) is reported as “C* (0.20 < C ≦ 0.40)”. Further, the Kd in assay [3] is over 1000 nM.
Take `COc1cc2ncnc(Sc3cccc(NC(=O)Nc4ccc(C(C)(C)C)cc4)c3)c2cc1OC` [Ex 174, 1-(4-tert-butylphenyl)-3-(3-(6,7-dimethoxyquinazolin-4-ylthio)phenyl)urea]: the S35 entry in assay [1] (290 distinct kinases) is “C (0.20 < C ≦ 0.40)”. For the same compound, the Kd in assay [3] was over 1000 nM.
For the compound `COc1cc2ncnc(Sc3cccc(NC(=O)Nc4ccc(C(F)(F)F)c(F)c4)c3)c2cc1OC` [Ex 188, 1-(3-(6,7-dimethoxyquinazolin-4-ylthio)phenyl)-3-(3-fluoro-4-(trifluoromethyl)phenyl)urea], in assay [1] (setting [5]), the S35 result is listed as “B* (0.10 < B ≦ 0.20)”. For the same compound, the Kd in assay [3] was over 1000 nM.
Taken in the same sequence, the figures for `COc1cc2ncnc(Sc3cccc(NC(=O)Nc4cc(CN5CCOCC5)cc(C(F)(F)F)c4)c3)c2cc1OC` [Ex 189, 1-(3-(6,7-dimethoxyquinazolin-4-ylthio)phenyl)-3-(3-(morpholinomethyl)-5-(trifluoromethyl)phenyl)urea] were “C* (0.20 < C ≦ 0.40)” and over 1000 nM.

A word on the Kd: it is the constant that tells how readily two partners part at equilibrium.
